Reference: paper PMC201021 (Malaria Journal, 2003)
Entries after “also recorded” stand apart in the source; their conditions may differ.

What was measured:
[1] = tested on: haematin dimerization to β-haematin; test: β-Haematin Inhibitory Activity; format: biochemical; conditions: 10 fold molar excess of drug
[2] = tested on: haematin dimerization to β-haematin; conditions: cited from earlier work

Structure (SMILES)	inhibition of the BHIA haematin dimerization reaction (in words) [1]	inhibition of spontaneous haematin dimerization to β-haematin in vitro [2]	inhibition of the BHIA haematin dimerization reaction (in words) ([1]; listed as PM)
C=C[C@H]1CN2CC[C@H]1C[C@@H]2C(O)c1ccnc2ccc(OC)cc12 (some centres unmarked) [Q, 6'-methoxy cinchonan-9-ol]	activity; also recorded: inhibited	inhibits	–
C=C[C@H]1C[N@@]2CC[C@H]1C[C@@H]2[C@@H](O)c1ccnc2ccccc12 [C, cinchonine]	activity; also recorded: inhibited	–	–
C=C[C@H]1C[N@@]2CC[C@H]1C[C@@H]2[C@@H](O)c1ccnc2ccc(OC)cc12 [QD, quinidine]	activity; also recorded: inhibited	–	–
COc1ccc(CCN(C)CCCC(C#N)(c2ccc(OC)c(OC)c2)C(C)C)cc1OC (centres unmarked) [VE, Verapamil]	Significant inhibition was not seen; also recorded: no significant interaction	–	–
CCN(CC)CCCC(C)Nc1ccnc2cc(Cl)ccc12 (centres unmarked) [CQ, chloroquine]	inhibited	–	–
CC[C@H]1CN2CC[C@H]1C[C@@H]2[C@@H](O)c1ccnc2ccc(OC)cc12 [HQD, hydroquinidine]	activity; also recorded: inhibited	–	–
CC(CN1c2ccccc2Sc2ccccc21)N(C)C (centres unmarked) [PMZ, promethazine]	Significant inhibition was not seen	–	no significant interaction
C=C[C@H]1CN2CC[C@H]1C[C@H]2[C@H](O)c1ccnc2ccccc12 [CD, cinchonidine]	activity; also recorded: inhibited	–	–
CC[C@H]1CN2CC[C@H]1C[C@H]2[C@H](O)c1ccnc2ccc(OC)cc12 [HQ, hydroquinine]	activity; also recorded: inhibited	–	–
